Source: the supplement of paper PMC11208160

Assay: recombinant UMI read abundance after kanamycin selection (control-corrected) (log10(CPM+1)); higher = more efficient recombination; extreme values may be limits of the assay; sequences stand for … in AGTGCAGAGAAAATCGGCCAGTTTTCTCTGCCTGCAGTCCGCATGCCGTGGGACCCCTTGGGTTCTAACCTGTTGCCTAGATTTATGCAGCGGACTGCCTTTCTCCCAAAGTGATAAACCGG…AGGTTGGTTTCACT; site = the 11-nt donor
Outline: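 Sequencing read counts were converted to CPM, averaged over two replicates and scaled by control-derived factors. Results are given as log10(CPM+1). The reads covered the donor–target junction of recombinant UMIs from a pooled Escherichia coli screen of donor and donor-binding-loop pairs for the IS621 bridge recombinase.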
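Further: IS621 bridge recombinase in Escherichia coli cells against a fixed T5 target plasmid.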

“CTTGGCCCATGGACCGGTTTTCCCGGTAATCCGTATTTGTA (site CTTGGCCCTTA)” and “CTTGTATCATGGACCGGTTTTCCCGGTAATCCGTATTTGAT (site CTAGTATCTGT)” are within 0.2 log units of each other in “recombinant UMI read abundance (log10)” value: 0.0132 for the first, 0 for the second.

First: CTTGTATCATGGACCGGTTTTCCCGGTAATCCGTATTTGAT (site CTTGTATCTAT)
Second: CTTGTCTCATGGACCGGTTTTCCCGGTAATCCGTATTTGAA (site CTTGTCTCTTT)
The “recombinant UMI read abundance (log10)” value of the first is lower: 1.29 for the first, 1.85 for the second.

First: CTTGTGGCATGGACCGGTTTTCCCGGTAATCCGTATTTGGA (site CTTGTGGCTTC)
Second: CTTGTGTCATGGACCGGTTTTCCCGGTAATCCGTATTTGAC (site CTAGTATCTGT)
The “recombinant UMI read abundance (log10)” value of the first is higher: 0.306 for the first, 0 for the second.

Going from “CTTGTGTCATGGACCGGTTTTCCCGGTAATCCGTATTTGAC (site CTTGTGTCTGT)” to “CTTTAAACATGGACCGGTTTTCCCGGTAATCCGTATTTGTA (site CTTTAAACTTA)”, the “recombinant UMI read abundance (log10)” value rises from 0.301 to 1.06.

First: CTTTACACATGGACCGGTTTTCCCGGTAATCCGTATTTGCT (site CTATACACTAG)
Second: CTTTACACATGGACCGGTTTTCCCGGTAATCCGTATTTGCT (site CTCTACACTAG)
The “recombinant UMI read abundance (log10)” value of the first is higher: 2.27 for the first, 1.2 for the second.

First: CTTTACACATGGACCGGTTTTCCCGGTAATCCGTATTTGCT (site CTGTACACTAG)
Second: CTTTACACATGGACCGGTTTTCCCGGTAATCCGTATTTGCT (site CTTTACACTAG)
The “recombinant UMI read abundance (log10)” value of the first is lower: 1.59 for the first, 1.81 for the second.

Compared with “CTTTACACATGGACCGGTTTTCCCGGTAATCCGTATTTGGG (site CTTTACACTCC)”, “CTTTACGCATGGACCGGTTTTCCCGGTAATCCGTATTTGTT (site CTTTACGCTAA)” is higher in “recombinant UMI read abundance (log10)” value: 0.147 for the first, 0.6 for the second.

First: CTTTCGGCATGGACCGGTTTTCCCGGTAATCCGTATTTGTG (site CTTTCGGCTCA)
Second: GAAAACGCATGGACCGGTTTTCCCGGTAATCCGTATTTGGA (site GAAAACGCTTC)
The “recombinant UMI read abundance (log10)” value of the first is lower: 0.003 for the first, 1.02 for the second.

First: GAAACCTCATGGACCGGTTTTCCCGGTAATCCGTATTTGGG (site GAAACCTCTCC)
Second: GAACGTGCATGGACCGGTTTTCCCGGTAATCCGTATTTGTC (site GAACGTGCTGA)
The “recombinant UMI read abundance (log10)” value of the first is lower: 0.698 for the first, 2.1 for the second.

Compared with “GAAGAGTCATGGACCGGTTTTCCCGGTAATCCGTATTTGTT (site GAAGAATCTAA)”, “GAAGAGTCATGGACCGGTTTTCCCGGTAATCCGTATTTGTT (site GAAGACTCTAA)” is lower in “recombinant UMI read abundance (log10)” value: 3.37 for the first, 0.941 for the second.

Going from “GAAGAGTCATGGACCGGTTTTCCCGGTAATCCGTATTTGTT (site GAAGAGTCTAA)” to “GAAGAGTCATGGACCGGTTTTCCCGGTAATCCGTATTTGTT (site GAAGATTCTAA)”, the “recombinant UMI read abundance (log10)” value falls from 2.91 to 0.417.

“GAAGATTCATGGACCGGTTTTCCCGGTAATCCGTATTTGCT (site GAAGATTCTAA)” and “GAAGATTCATGGACCGGTTTTCCCGGTAATCCGTATTTGCT (site GAAGATTCTAC)” are within 0.2 log units of each other in “recombinant UMI read abundance (log10)” value: 0.178 for the first, 0 for the second.

Going from “GAAGATTCATGGACCGGTTTTCCCGGTAATCCGTATTTGCT (site GAAGATTCTAG)” to “GAAGATTCATGGACCGGTTTTCCCGGTAATCCGTATTTGCT (site GAAGATTCTAT)”, the “recombinant UMI read abundance (log10)” value falls from 2.54 to 0.

Going from “GAAGATTCATGGACCGGTTTTCCCGGTAATCCGTATTTGTC (site GAAGATTCTAA)” to “GAAGATTCATGGACCGGTTTTCCCGGTAATCCGTATTTGTC (site GAAGATTCTCA)”, the “recombinant UMI read abundance (log10)” value falls from 0.564 to 0.

First: GAAGATTCATGGACCGGTTTTCCCGGTAATCCGTATTTGTC (site GAAGATTCTGA)
Second: GAAGATTCATGGACCGGTTTTCCCGGTAATCCGTATTTGTC (site GAAGATTCTTA)
The “recombinant UMI read abundance (log10)” value of the first is higher: 2.29 for the first, 0.965 for the second.

Compared with “GAAGCATCATGGACCGGTTTTCCCGGTAATCCGTATTTGCA (site GAAGCATCTTG)”, “GAAGCGTCATGGACCGGTTTTCCCGGTAATCCGTATTTGTA (site GAAGCGTCTTA)” is higher in “recombinant UMI read abundance (log10)” value: 2.67 for the first, 2.88 for the second.

Compared with “GAAGGGTCATGGACCGGTTTTCCCGGTAATCCGTATTTGTT (site GAAGGGTCTAA)”, “GAAGTAGCATGGACCGGTTTTCCCGGTAATCCGTATTTGGG (site GAAGTAGCTCC)” is lower in “recombinant UMI read abundance (log10)” value: 2.74 for the first, 0.618 for the second.

Compared with “GAAGTCGCATGGACCGGTTTTCCCGGTAATCCGTATTTGCG (site GAAGTCGCTCG)”, “GAAGTCGCATGGACCGGTTTTCCCGGTAATCCGTATTTGCG (site GCAGTCGCTCG)” is lower in “recombinant UMI read abundance (log10)” value: 0.562 for the first, 0.0126 for the second.

“GAAGTCGCATGGACCGGTTTTCCCGGTAATCCGTATTTGCG (site GGAGTCGCTCG)” and “GAAGTCGCATGGACCGGTTTTCCCGGTAATCCGTATTTGCG (site GTAGTCGCTCG)” are within 0.2 log units of each other in “recombinant UMI read abundance (log10)” value: 0.0249 for the first, 0.023 for the second.

Going from “GAAGTTTCATGGACCGGTTTTCCCGGTAATCCGTATTTGTT (site GAAGATTCTAA)” to “GAAGTTTCATGGACCGGTTTTCCCGGTAATCCGTATTTGTT (site GAAGCTTCTAA)”, the “recombinant UMI read abundance (log10)” value rises from 0 to 0.43.

Compared with “GAAGTTTCATGGACCGGTTTTCCCGGTAATCCGTATTTGTT (site GAAGGTTCTAA)”, “GAAGTTTCATGGACCGGTTTTCCCGGTAATCCGTATTTGTT (site GAAGTTTCTAA)” is higher in “recombinant UMI read abundance (log10)” value: 0 for the first, 1.76 for the second.

First: GAATACTCATGGACCGGTTTTCCCGGTAATCCGTATTTGAT (site GAATACTCTAT)
Second: GAATATTCATGGACCGGTTTTCCCGGTAATCCGTATTTGTT (site GAAAATTCTAA)
The “recombinant UMI read abundance (log10)” value of the first is higher: 2.8 for the first, 0 for the second.

“GAATATTCATGGACCGGTTTTCCCGGTAATCCGTATTTGTT (site GAACATTCTAA)” and “GAATATTCATGGACCGGTTTTCCCGGTAATCCGTATTTGTT (site GAAGATTCTAA)” are the same in “recombinant UMI read abundance (log10)” value: 0 for the first, 0 for the second.

First: GAATATTCATGGACCGGTTTTCCCGGTAATCCGTATTTGTT (site GAATATTCTAA)
Second: GAATCGCCATGGACCGGTTTTCCCGGTAATCCGTATTTGCA (site GAATAGCCTTG)
The “recombinant UMI read abundance (log10)” value of the first is higher: 0.948 for the first, 0.613 for the second.

Going from “GAATCGCCATGGACCGGTTTTCCCGGTAATCCGTATTTGCA (site GAATCGCCTTG)” to “GAATCGCCATGGACCGGTTTTCCCGGTAATCCGTATTTGCA (site GAATGGCCTTG)”, the “recombinant UMI read abundance (log10)” value falls from 0.687 to 0.345.

First: GAATCGCCATGGACCGGTTTTCCCGGTAATCCGTATTTGCA (site GAATTGCCTTG)
Second: GAATGACCATGGACCGGTTTTCCCGGTAATCCGTATTTGCA (site GAATGACCTTG)
The “recombinant UMI read abundance (log10)” value of the first is lower: 0 for the first, 1.13 for the second.
